Experimental data: US20140017330A1, “Activated Nucleoside Analog Conjugates and Methods of Use Thereof” (BOARD OF REGENTS OF THE UNIVERSITY OF NEBRASKA, priority 2011, published 2014)
pIC50: −log10 of the molar value.

Legend:
[1] = test system: cytarabine-resistant human leukemic lymphoblast CEM/araC/8 cells; assay: MTT cytotoxicity assay, CEM/araC/8; format: cell-based; details: 72-hour treatment
Description: (§1) Human breast carcinoma MCF-7, human hepatocellular carcinoma HepG2, and human prostate adenocarcinoma PC-3 cells were obtained from ATCC (Rockville, Md.). These cells were maintained in Dulbecco's Modified Eagle Medium (DMEM) supplemented with 10% fetal bovine serum (FBS), 1% L-glutamine, and 2% penicillin-streptomycin at 37° C. in a humidified atmosphere containing 5% CO2. […] These cells were maintained in DMEM/Nutrient mixture F-12 (DMEM/F12) with similar supplements and serum as above. […] They were grown in the presence of 2 μM gemcitabine. […] Galmarini (UFR Lyon-Sud, Oullins, France). The cells were grown in the presence of 0.5 μM cytarabine (araC). […]
(§2) Cytotoxicity of the polymeric conjugates was analyzed in different cancer cell lines by a standard MTT assay. […] Samples were incubated in full medium for 72 hours at 37° C., and the metabolic activity of each sample was determined by adding 20 μL of a 5 mg/mL of MTT stock solution in sterile PBS buffer to each well. […] Optical absorbance was measured at 560 nm using a model 680 microplate reader (BioRad, Hercules, Calif.) and cytotoxicity was expressed as a percentage of survived cells relative to nontreated control cells. All samples were analyzed by an average of eight measurements (means±SEM).

[2] = test system: human breast carcinoma MCF-7 cells; assay: MTT cytotoxicity assay, MCF-7; format: cell-based; details: MCF7, 72-hour treatment
Description: as §1, §2

[3] = test system: human hepatocellular carcinoma HepG2 cells; assay: MTT cytotoxicity assay, HepG2; format: cell-based; details: 72-hour treatment, read-out: IC50 values, Hep G2
Description: as §1, §2

[4] = test system: human prostate adenocarcinoma PC-3 cells; assay: MTT cytotoxicity assay, PC-3; format: cell-based; details: 72-hour treatment
Description: as §1, §2

[5] = test system: human breast carcinoma MDA-MB-231 cells; assay: MTT cytotoxicity assay, MDA-MB-231; format: cell-based; details: 72-hour treatment
Description: as §1, §2

[6] = test system: gemcitabine-resistant human follicular lymphoma RL7/G cells; assay: MTT cytotoxicity assay, RL7/G; format: cell-based; details: 72-hour treatment
Description: as §1, §2

[7] = comparator from the literature (Mikkola 2004); cited from earlier work

In the case of `Nc1ccn([C@@H]2O[C@H](CO)[C@@H](O)[C@@H]2O)c(=O)n1` [Cytarabine (araC), arabinosylcytosine], the pIC50 [1] was 2.91.
`O=c1[nH]c(=O)n([C@H]2C[C@H](O)[C@@H](CO)O2)cc1F` [Floxuridine (FdU), 5-fluoro-2′-deoxyuridine] gave a pIC50 [2] of 1.91, a pIC50 [3] of 2.66 and a pIC50 [4] of 5.19. The pIC50 [5] was 4.85.
`Nc1ccn([C@@H]2O[C@H](CO)[C@@H](O)C2(F)F)c(=O)n1` [Gemcitabine (G), 2,2′-difluorocytidine] showed a pIC50 [6] of 1.72.
In the case of `Nc1ncnc2c1ncn2[C@@H]1O[C@H](COP(=O)(O)OP(=O)(O)OP(=O)(O)OP(=O)(O)OC[C@H]2O[C@@H](n3cnc4c(N)ncnc43)[C@H](O)[C@@H]2O)[C@@H](O)[C@H]1O` [diadenosine-P1,P4-tetraphosphate], the drug release time [7] is given as 3 days.
